Assay results published in ChEMBL document CHEMBL5241120, “Insights into the medicinal chemistry of heterocycles integrated with a pyrazolo[1,5-a]pyrimidine scaffold” (RSC Med Chem, 2022).
In brackets after ≈: the same amount, converted by molar mass. One block for each compound: values may come before it.

How the values were obtained:
Staphylococcus aureus [1] = experiment: Antibacterial activity against Staphylococcus aureus; format: functional
Bacillus subtilis [2] = experiment: Antibacterial activity against Bacillus subtilis assessed as zone of inhibition; format: functional
Pseudomonas aeruginosa [3] = experiment: Antibacterial activity against Pseudomonas aeruginosa assessed as zone of inhibition; format: functional
Bacillus subtilis [4] = experiment: Antibacterial activity against Bacillus subtilis; format: functional
Staphylococcus aureus [5] = experiment: Antibacterial activity against Staphylococcus aureus assessed as zone of inhibition; format: functional
Pseudomonas aeruginosa [6] = experiment: Antibacterial activity against Pseudomonas aeruginosa; format: functional
Escherichia coli [7] = experiment: Antibacterial activity against Escherichia coli assessed as zone of inhibition; format: functional
Escherichia coli [8] = experiment: Antibacterial activity against Escherichia coli; format: functional
Aspergillus niger [9] = experiment: Antifungal activity against Aspergillus niger assessed as zone of inhibition; format: functional
Candida albicans = experiment: Antifungal activity against Candida albicans assessed as zone of inhibition; format: functional
Salmonella enterica = experiment: Antibacterial activity against Salmonella enterica assessed as zone of inhibition; format: functional
[10] = Inhibition of soybean 15-LOX; set-up: species or system Glycine max
Rattus norvegicus [11] = experiment: Antiinflammatory activity in rat assessed as inhibition of carrageenan induced paw edema at 50 mg/kg; format: functional; set-up: scale not given: the % may be the effect or the level left
[12] = target: T1, Prostaglandin G/H synthase 1 (Ovis aries, UniProt P05979); experiment: Inhibition of ovine COX-1
T1 sequence (P05979 whole entry): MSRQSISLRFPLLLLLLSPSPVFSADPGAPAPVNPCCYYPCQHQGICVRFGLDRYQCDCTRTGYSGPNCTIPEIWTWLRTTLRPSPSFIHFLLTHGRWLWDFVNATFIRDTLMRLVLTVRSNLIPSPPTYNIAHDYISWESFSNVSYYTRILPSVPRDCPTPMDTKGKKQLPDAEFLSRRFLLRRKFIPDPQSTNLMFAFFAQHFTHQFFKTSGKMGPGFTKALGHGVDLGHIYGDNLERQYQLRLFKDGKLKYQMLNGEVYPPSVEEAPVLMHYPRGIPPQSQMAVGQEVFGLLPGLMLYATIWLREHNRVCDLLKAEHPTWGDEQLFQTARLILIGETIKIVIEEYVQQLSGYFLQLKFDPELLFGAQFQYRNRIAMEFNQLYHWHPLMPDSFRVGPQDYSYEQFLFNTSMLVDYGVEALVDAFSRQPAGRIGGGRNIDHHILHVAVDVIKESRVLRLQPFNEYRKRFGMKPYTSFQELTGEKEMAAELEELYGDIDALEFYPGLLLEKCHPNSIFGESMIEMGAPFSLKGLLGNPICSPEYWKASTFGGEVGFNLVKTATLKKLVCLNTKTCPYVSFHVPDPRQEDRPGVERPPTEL

Rattus norvegicus [13] = experiment: Analgesic activity in Sprague-Dawley rat at 15 mg/kg after 2 hrs by hot plate test; format: functional
Fusarium verticillioides = experiment: Antifungal activity against Fusarium moniliforme by dry weight method; format: functional
Aspergillus flavus = experiment: Antifungal activity against Aspergillus flavus by dry weight method; format: functional; set-up: unit not given beside the values
Aspergillus niger [14] = experiment: Antifungal activity against Aspergillus niger by dry weight method; format: functional
HepG2 = experiment: Cytotoxicity against human HepG2 cells by MTT assay; format: functional, cell-based
MCF7 [15] = experiment: Cytotoxicity against human MCF7 cells by MTT assay; format: functional, cell-based
HCT-116 = experiment: Cytotoxicity against human HCT-116 cells by MTT assay; format: functional, cell-based
MCF7 [16] = experiment: Cytotoxicity against human MCF7 cells by SRB assay; format: functional, cell-based
CHO-K1 = experiment: Cytotoxicity against CHO-K1 cells by MTT assay; format: toxicity, cell-based, Cricetulus griseus; set-up: concentration or dose not given beside the values; conditions: chinese hamster

MIC (Staphylococcus aureus [1]): 62.5 mg/L (≈ 141 µM)
MIC (Bacillus subtilis [4]): 31.2 mg/L (≈ 70.3 µM)
MIC (Pseudomonas aeruginosa [6]): 62.5 mg/L (≈ 141 µM)
MIC (Escherichia coli [8]): 15.6 mg/L (≈ 35.1 µM)
Compound: CN(C)[C@@H]1C(O)=C(C(N)=O)C(=O)[C@@]2(O)C(O)=C3C(=O)c4c(O)cccc4[C@@](C)(O)[C@H]3C[C@@H]12 [TETRACYCLINE]
inhibition zone (IZ) (Bacillus subtilis [2]): 25 mm
inhibition zone (IZ) (Pseudomonas aeruginosa [3]): 20 mm
inhibition zone (IZ) (Staphylococcus aureus [5]): 25 mm
inhibition zone (IZ) (Escherichia coli [7]): 23 mm

Compound: COc1ccc(Nc2nn3c(N)c(C#N)c(-c4cccc(Cl)c4)nc3c2C(=O)Nc2ccccc2)cc1
inhibition zone (IZ) (Aspergillus niger [9]): 15 mm

Compound: COc1ccc(Nc2nn3c(N)c(C#N)c(-c4cc(OC)ccc4OC)nc3c2C(=O)Nc2ccccc2)cc1
inhibition zone (IZ) (Bacillus subtilis [2]): 20 mm
inhibition zone (IZ) (Aspergillus niger [9]): 15 mm
inhibition zone (IZ) (Escherichia coli [7]): 16 mm

Compound: COc1ccc(Nc2nn3c(N)c(C#N)c(-c4cccc(Cl)c4)nc3c2C(=O)Nc2ccc(Cl)cc2)cc1
inhibition zone (IZ) (Aspergillus niger [9]): 15 mm

Compound: C[C@@H]1C[C@@H]([C@H](O)CC2CC(=O)NC(=O)C2)C(=O)[C@@H](C)C1 [CYCLOHEXIMIDE]
inhibition zone (IZ) (Candida albicans): 32 mm

Compound: C[C@@H]1[C@H](O)[C@@H](C)/C=C/C=C/C=C/C=C/C=C/C=C/C=C/[C@H](O[C@@H]2O[C@H](C)[C@@H](O)[C@H](N)[C@@H]2O)C[C@@H]2O[C@](O)(C[C@@H](O)C[C@@H](O)[C@H](O)CC[C@@H](O)C[C@@H](O)CC(=O)O[C@H]1C)C[C@H](O)[C@H]2C(=O)O [AMPHOTERICIN B]
inhibition zone (IZ) (Aspergillus niger [9]): 23.3 mm

Compound: CC(=O)c1cnc2c(C(=O)Nc3ccccc3)cnn2c1C
inhibition zone (IZ) (Salmonella enterica): 16 mm

IC50 [10]: 5.6 µM
IC50 [12]: 8.5 µM
Compound: COc1ccnc(Nc2nn3c(C)cc(C)nc3c2C#N)c1
Activity (Rattus norvegicus [11]): 46%

Compound: O=C(O)Cc1ccccc1Nc1c(Cl)cccc1Cl [DICLOFENAC]
Activity (Rattus norvegicus [13]): 84%

IC50 [10]: 8.4 µM
IC50 [12]: 7.9 µM
Compound: CCOc1cc(C)nc2c(C#N)c(Nc3cc(OC)ccn3)nn12
Activity (Rattus norvegicus [11]): 46%

Compound: O=C(Nc1ccccc1)c1cnn2ccc(-c3ccccn3)nc12
inhibition zone (IZ) (Salmonella enterica): 20 mm

Compound: CSc1nn2c(-c3ccccc3)c(C#N)c(=O)[nH]c2c1-c1nc2ccccc2n1C
Activity (Fusarium verticillioides): 0.16
Activity (Aspergillus flavus): 0.33
Activity (Aspergillus niger [14]): 0.43

IC50 [10]: 27.3 µM
IC50 [12]: 10.2 µM
Compound: COc1ccnc(Nc2nn3c(SC)c(C#N)c(N)nc3c2C#N)c1

Compound: CC1=CC(c2ccccc2)n2nc(-c3ccccc3)cc2N1 (centres undefined)
IC50 (HepG2): 0.64 mg/L (≈ 2.23 µM)
IC50 (MCF7 [15]): 2.79 mg/L (≈ 9.71 µM)
IC50 (HCT-116): 1.89 mg/L (≈ 6.58 µM)

Compound: Cc1ccc(N/N=C2\C(=O)n3nc(C)cc3N=C2C(F)(F)F)cc1
Activity (Rattus norvegicus [13]): 121.1%

Compound: CC1=CC(c2ccccc2)n2nc(C)cc2N1 (centres undefined)
IC50 (HepG2): 24.8 mg/L (≈ 110 µM)
IC50 (MCF7 [15]): 23.5 mg/L (≈ 104 µM)
IC50 (HCT-116): 22.6 mg/L (≈ 100 µM)

Compound: O=C(Nc1ccccc1)c1cnn2c(-c3ccncc3)ccnc12
inhibition zone (IZ) (Salmonella enterica): 23 mm
inhibition zone (IZ) (Escherichia coli [7]): 12 mm

Compound: CC/C(=C(\c1ccccc1)c1ccc(OCCN(C)C)cc1)c1ccccc1 [TAMOXIFEN]
IC50 (MCF7 [16]): 8.5 mg/L (≈ 22.9 µM)

Compound: Cc1nc2c(c(C)nc3c(C#N)cnn32)c(Cl)c1CCCl
inhibition zone (IZ) (Bacillus subtilis [2]): 15.1 mm
inhibition zone (IZ) (Aspergillus niger [9]): 17.2 mm
inhibition zone (IZ) (Escherichia coli [7]): 15.3 mm

IC50 [10]: 8.2 µM
IC50 [12]: 8.5 µM
Compound: CCOc1cc(N)n2nc(Nc3cc(OC)ccn3)c(C#N)c2n1
Activity (Rattus norvegicus [11]): 46%

Compound: COC(=O)c1cnc2c(C(=O)Nc3c(C)n(C)n(-c4ccccc4)c3=O)cnn2c1C
Activity (CHO-K1): 49.24%

Compound: O=C(Nc1ccccc1)c1cnn2c(-c3ccccn3)ccnc12
inhibition zone (IZ) (Salmonella enterica): 11 mm

Compound: CSc1nn2c(-c3cccs3)c(C#N)c(N)nc2c1-c1nc2ccccc2n1C
Activity (Fusarium verticillioides): 0.28
Activity (Aspergillus flavus): 0.38
Activity (Aspergillus niger [14]): 0.56

MIC (Bacillus subtilis [4]): 5 mg/L (≈ 8.6 µM)
MIC (Escherichia coli [8]): 5 mg/L (≈ 8.6 µM)
Compound: CN[C@@H]1[C@H](O[C@H]2[C@H](O[C@H]3[C@H](O)[C@@H](O)[C@H](N=C(N)N)[C@@H](O)[C@@H]3N=C(N)N)O[C@@H](C)[C@]2(O)C=O)O[C@@H](CO)[C@H](O)[C@H]1O [STREPTOMYCIN]
inhibition zone (IZ) (Bacillus subtilis [2]): 16.2 mm
inhibition zone (IZ) (Escherichia coli [7]): 16.4 mm
